Data published in patent US20090124631A1, “Combination Therapy” (priority 2007, published 2009).

Key:
Type in all cases: biochemical
HDAC8 = target: T1, HDAC8 (Homo sapiens, UniProt Q9BY41); assay: Fluorescence-based HDAC enzyme assay, recombinant HDAC8; settings: recombinant human HDAC enzyme in vitro; read-out: IC50 (μM) HD8
T1 construct: HDAC6 and 8 were cloned as full length N-terminally His-tagged protein; His tag (N); made in house; host or cells: Sf-9 insect cells (baculovirus)
T1 sequence (Q9BY41 1-377): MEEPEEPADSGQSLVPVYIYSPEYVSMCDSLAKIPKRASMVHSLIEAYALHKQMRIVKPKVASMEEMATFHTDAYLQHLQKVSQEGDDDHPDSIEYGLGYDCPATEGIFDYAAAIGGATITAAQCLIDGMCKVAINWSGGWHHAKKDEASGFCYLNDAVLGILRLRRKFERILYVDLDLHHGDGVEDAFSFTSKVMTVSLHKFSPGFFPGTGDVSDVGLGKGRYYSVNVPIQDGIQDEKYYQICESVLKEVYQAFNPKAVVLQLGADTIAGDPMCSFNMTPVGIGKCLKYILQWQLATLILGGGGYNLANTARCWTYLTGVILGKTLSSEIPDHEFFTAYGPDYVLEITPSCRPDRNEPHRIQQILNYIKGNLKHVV
From the text: (§1) cDNAs of human HDAC1-8 and 11 were generated by RT-PCR reactions using primers complementary to the 5′ and 3′ coding sequence of human HDAC gene sequences in GenBank. cDNAs corresponding to the full length human HDAC1, 2, 3 and 11 were cloned into pBlueBac4.5 vector (Invitrogen). The constructs were used to generate recombinant baculoviruses using the Bac-N-Blue™ DNA according to the manufacturer's instructions (Invitrogen). The recombinant HDAC1, 2, 3, 11 proteins produced harbor a FLAG tag at their C-termini. cDNAs encoding truncated versions of HDAC4, 5 and 7 encompassing their deacetylase domains were cloned into pDEST10 as an N-terminal hexahistidine fusion protein and recombinant baculoviruses were generated using the Bac-to-Bac™ Baculovirus expression system (Invitrogen). HDAC6 and 8 were cloned as full length N-terminally His-tagged protein. All HDAC proteins were expressed in insect Sf-9 cells (Spodoptera frugiperdai) upon infection with recombinant baculovirus. HDAC1 enzyme was purified from the Q-sepharose FF column (Amersham Pharmacia Biotech, Baie d'Urfe QC, Canada) followed by an anti-FLAG immunoaffinity column (Sigma). HDAC2, 3 and 11 were purified using Flag-antibody immunoaffinity purification. HDAC4, 5, 6, 7 and 8 were purified using either Ni-NTA resin (QIAGEN Mississauga ON, Canada) or His-Select resin (Sigma) with step washes and elution with different concentrations of imidazole in Buffer containing 25 mM Tris (or NaPO4) pH 8.0, 10% glycerol and 150 mM or 500 mM NaCl.
(§2) Recombinant HDAC enzymes were incubated with diluted compounds in assay buffer (25 mM Hepes, pH 8.0, 137 mM NaCl, 1 mM MgCl2 and 2.7 mM KCl) for 10 minutes at ambient temperatures in black 96-well plate. Boc-Lys(Ac)-AMC (for HDAC1, 2, 3, 6, and 8 enzymes), which was purchased from Bachem Biosciences Inc., (King of Prussia, Philadelphia) were added into enzyme-compound mixture and incubated at 37° C. For HDAC4, 5, 7 assays, Boc-Lys(TFA)-AMC, which was synthesized in house, was used as substrate and 0.1% BSA was added to the buffer. […] Reaction time was predetermined to ensure that reaction was linear for the incubation time. Reaction was stopped by adding a freshly prepared trypsin (1 mg/ml final concentration) with 1 μM TSA (Biomol) in assay buffer. After 30 minutes, fluorescence was measured using a fluorometer (SPECTRAMAX GeminiXS, Molecular Devices, Sunnylvale, Calif.). The 50% inhibitory concentrations (IC50) for inhibitors were determined by analyzing dose-response inhibition curves.

HDAC1 = target: T2, HDAC1 (Homo sapiens, UniProt Q13547); assay: Fluorescence-based HDAC enzyme assay, recombinant HDAC1; settings: recombinant human HDAC enzyme in vitro; read-out: IC50 (μM) HD1
T2 construct: cDNAs corresponding to the full length human HDAC1, 2, 3 and 11 were cloned into pBlueBac4.5 vector; FLAG (C); made in house; host or cells: Sf-9 insect cells (baculovirus)
T2 sequence (Q13547 whole entry): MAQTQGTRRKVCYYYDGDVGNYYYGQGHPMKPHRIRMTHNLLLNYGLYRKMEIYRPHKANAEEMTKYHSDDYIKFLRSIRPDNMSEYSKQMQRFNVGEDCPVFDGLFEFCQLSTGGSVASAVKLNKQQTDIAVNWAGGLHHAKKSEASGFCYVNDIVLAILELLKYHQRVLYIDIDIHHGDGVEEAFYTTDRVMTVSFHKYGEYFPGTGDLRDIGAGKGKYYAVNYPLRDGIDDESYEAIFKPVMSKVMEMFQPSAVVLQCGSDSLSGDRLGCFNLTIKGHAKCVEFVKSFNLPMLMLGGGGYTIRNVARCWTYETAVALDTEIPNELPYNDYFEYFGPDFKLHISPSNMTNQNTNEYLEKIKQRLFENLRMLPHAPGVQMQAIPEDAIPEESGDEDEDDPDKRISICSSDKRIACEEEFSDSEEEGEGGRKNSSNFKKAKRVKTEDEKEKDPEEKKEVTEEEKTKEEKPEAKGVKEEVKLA
From the text: as §1, with “HDAC2, 3 and 11 were purified using Flag-antibody immunoaffinity purification.” left out
as §2, with “Boc-Lys(Ac)-AMC” for “Recombinant HDAC enzymes were incubated with diluted compounds in assay buffer (25 mM Hepes, pH 8.0, 137 mM NaCl, 1 mM MgCl2 and 2.7 mM KCl) for 10 minutes at ambient temperatures in black 96-well plate. Boc-Lys(Ac)-AMC”, “Calif.).” for “Calif.). The 50% inhibitory concentrations (IC50) for inhibitors were determined by analyzing dose-response inhibition curves.”

HDAC2 = target: T3, HDAC2 (Homo sapiens, UniProt Q92769); assay: Fluorescence-based HDAC enzyme assay, recombinant HDAC2; settings: recombinant human HDAC enzyme in vitro; read-out: IC50 (μM) HD2
T3 construct: cDNAs corresponding to the full length human HDAC1, 2, 3 and 11 were cloned into pBlueBac4.5 vector; FLAG (C); made in house; host or cells: Sf-9 insect cells (baculovirus)
T3 sequence (Q92769 whole entry): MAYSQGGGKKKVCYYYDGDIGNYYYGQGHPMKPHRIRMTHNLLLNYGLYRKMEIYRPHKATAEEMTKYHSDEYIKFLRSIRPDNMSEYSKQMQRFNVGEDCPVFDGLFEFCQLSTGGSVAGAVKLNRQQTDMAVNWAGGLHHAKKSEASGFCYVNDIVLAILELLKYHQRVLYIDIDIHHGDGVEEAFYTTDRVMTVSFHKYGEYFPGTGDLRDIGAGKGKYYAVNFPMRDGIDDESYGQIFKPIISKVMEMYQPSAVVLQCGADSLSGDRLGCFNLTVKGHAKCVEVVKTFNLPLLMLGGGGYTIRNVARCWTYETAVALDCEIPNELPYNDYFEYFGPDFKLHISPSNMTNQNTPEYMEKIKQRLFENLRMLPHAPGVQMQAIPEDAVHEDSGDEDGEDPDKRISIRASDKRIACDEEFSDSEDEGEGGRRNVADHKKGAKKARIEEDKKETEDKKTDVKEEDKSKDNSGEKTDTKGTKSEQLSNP
From the text: as §1, with “HDAC2, 3 and 11 were purified using Flag-antibody immunoaffinity purification.” left out
as §2, with “Boc-Lys(Ac)-AMC” for “Recombinant HDAC enzymes were incubated with diluted compounds in assay buffer (25 mM Hepes, pH 8.0, 137 mM NaCl, 1 mM MgCl2 and 2.7 mM KCl) for 10 minutes at ambient temperatures in black 96-well plate. Boc-Lys(Ac)-AMC”, “Calif.).” for “Calif.). The 50% inhibitory concentrations (IC50) for inhibitors were determined by analyzing dose-response inhibition curves.”

Row | IC50 (HDAC8) | IC50 (HDAC1) | IC50 (HDAC2) | SMILES
1 | > 10 µM | 0.06 µM | 0.1 µM | CN1CCN(c2ccc(C(=O)Nc3cc(-c4ccncc4)ccc3N)cc2)CC1 [Compound G]
2 | > 10 µM | 0.02 µM | 0.08 µM | Nc1ccc(-c2ccccc2)cc1NC(=O)c1ccc(N2CCC(N)CC2)cc1 [Compound E]
3 | 1.63 µM | 0.2 µM | 0.5 µM | Nc1ccccc1NC(=O)c1ccc(N2CC[C@H](Nc3cccnc3)C2)cc1 [Compound B]
4 | > 10 µM | 0.06 µM | 0.09 µM | CC(C)N1CCN(c2ccc(C(=O)Nc3cc(-c4ccncc4)ccc3N)cc2)CC1 [Compound H]
5 | > 10 µM | 0.04 µM | 0.09 µM | Nc1ccc(-c2ccccc2)cc1NC(=O)c1ccc(N2CC[C@H](N)C2)cc1 [Compound D]
6 | > 10 µM | 0.1 µM | 0.1 µM | CN1CCN(c2ccc(C(=O)Nc3cc(-c4ccccn4)ccc3N)cc2)CC1 [Compound F]
